Active and inactive are the calls of the source. No cut-off for these calls is given here.
Columns and labels:
[1] = species: Mus musculus; assay: Antioxidant activity in 10% C57BL/6J mouse plasma assessed as inhibition of NaOCl-induced lipid oxidation at 30 uM by DPPP-based fluorescence assay; format: functional, cell-free
[2] = 1-octanol-water partition coefficient, log P of the compound; format: physicochemical
[3] = Plasma concentration in paediatric patients with congestive heart failure; format: ADME; conditions: human
[4] = Antioxidant activity assessed as inhibition of Meo-AMVN-derived peroxyl radicals-induced fucoxanthin consumption at 50 uM; format: functional
[5] = species: Mus musculus; assay: Antioxidant activity in 10% C57BL/6J mouse plasma assessed as inhibition of AAPH-derived peroxyl radicals-induced pyranine consumption at 50 uM; format: functional, cell-free
[6] = target: T1, Polyunsaturated fatty acid lipoxygenase ALOX15 (Mus musculus) (UniProt P39654); assay: (§1) Inhibition of 15-LOX-mediated lipid oxidation in 10% C57BL/6J mouse plasma; format: cell-free
T1 sequence (whole entry): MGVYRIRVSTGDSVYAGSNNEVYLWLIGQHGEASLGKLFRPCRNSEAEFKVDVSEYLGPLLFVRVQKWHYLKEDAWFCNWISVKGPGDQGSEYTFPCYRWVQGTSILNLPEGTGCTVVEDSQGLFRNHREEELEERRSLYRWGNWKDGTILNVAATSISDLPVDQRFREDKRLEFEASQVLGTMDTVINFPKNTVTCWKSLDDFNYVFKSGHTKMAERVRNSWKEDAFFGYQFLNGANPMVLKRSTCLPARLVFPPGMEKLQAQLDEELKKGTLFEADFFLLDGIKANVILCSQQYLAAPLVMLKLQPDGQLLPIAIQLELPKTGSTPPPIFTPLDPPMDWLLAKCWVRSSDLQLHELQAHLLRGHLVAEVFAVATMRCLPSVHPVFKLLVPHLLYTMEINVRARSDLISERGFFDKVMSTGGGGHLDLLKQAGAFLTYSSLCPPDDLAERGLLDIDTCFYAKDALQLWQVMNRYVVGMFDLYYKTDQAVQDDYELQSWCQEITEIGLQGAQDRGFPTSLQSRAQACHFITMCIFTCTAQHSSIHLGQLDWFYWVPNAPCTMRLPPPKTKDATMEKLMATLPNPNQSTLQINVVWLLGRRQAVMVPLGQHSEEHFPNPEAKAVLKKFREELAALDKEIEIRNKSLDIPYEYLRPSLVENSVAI

[7] = target: T2, Polyunsaturated fatty acid lipoxygenase ALOX15 (Mus musculus, UniProt P39654); assay: as §1; format: cell-free
T2 sequence (P39654 whole entry): T1 sequence (whole entry)

[8] = Plasma concentration in human at 400 mg, po; format: ADME, cell-free
[9] = species: Mus musculus; assay: Antioxidant activity in 10% C57BL/6J mouse plasma assessed as inhibition of SIN-1-derived peroxynitrite-induced lipid oxidation by DPPP-based fluorescence assay; format: functional, cell-free
[10] = species: Mus musculus; assay: Antioxidant activity in 10% C57BL/6J mouse plasma assessed as inhibition of NaOCl-induced lipid oxidation by DPPP-based fluorescence assay; format: functional, cell-free
[11] = Drug level in plasma (unknown origin); format: ADME, cell-free
[12] = Plasma concentration in pediatric kawasaki patient at 10 to 25 mg/kg, po by HPLC method; format: ADME, organism-based; conditions: human, in vivo
[13] = Plasma concentration in Sprague-Dawley rat at 1 mg/kg bolus dose with continuous infusion of 1 mg/kg per hour measured for 24 hrs; format: ADME, organism-based; conditions: iv
[14] = 1-octanol/water, read-out: logP

With `COc1ccccc1OCCNCC(O)COc1cccc2[nH]c3ccccc3c12` (centres undefined) [CARVEDILOL] as the molecule, how does the inhibition [1] read?
The inhibition was “Dose-dependent effect”.

What about the logP ([2]; octanol/water) of the same molecule?
The logP was 1.04.

What about the concentration [3] of the same molecule?
The concentration was 0.5 µM.

Which inhibition [4] does the source give for `Cc1c(C)c2c(c(C)c1O)CCC(C)(COc1ccc(CC3SC(=O)NC3=O)cc1)O2` (centres undefined) [TROGLITAZONE] here?
The inhibition was “Active”.

What about the inhibition [5] of the same molecule?
The inhibition was “Active”.

What about the inhibition [1] of the same molecule?
Its inhibition is “Dose-dependent effect”.

What about the inhibition [6] of the same molecule?
The inhibition was “Dose-dependent effect”.

And the IC50 [7]?
Its IC50 is 20 µM.

What about the logP ([2]; octanol/water) of the same molecule?
The logP was 0.95.

What about the concentration [8] of the same molecule?
The concentration was 5 to 20 µM.

With `CC(C)(Sc1cc(C(C)(C)C)c(O)c(C(C)(C)C)c1)Sc1cc(C(C)(C)C)c(O)c(C(C)(C)C)c1` [PROBUCOL] as the molecule, how does the inhibition [5] read?
The inhibition was “Active”.

And the inhibition [9]?
The inhibition was “Dose-dependent effect”.

And the inhibition [10]?
The inhibition was “Dose-dependent effect”.

And the logP [2, 14]?
The logP was 1.02.

What about the concentration [11] of the same molecule?
The concentration was 30 µM.

What does the source list for `Cc1c(C)c2c(c(C)c1O)CC[C@@](C)(CCC[C@H](C)CCC[C@H](C)CCCC(C)C)O2`?
inhibition [4]: Active; inhibition [5]: Active

For `CC(=O)CCCCn1c(=O)c2c(ncn2C)n(C)c1=O` [PENTOXIFYLLINE], which inhibition [1] is on record?
The inhibition was “Dose-dependent effect”.

What about the logP [2, 14] of the same molecule?
The logP was 0.19.

What about the concentration [12] of the same molecule?
Its concentration is 5 to 20 µM.

What does the source list for `CC1=NN(c2ccccc2)C(=O)C1` [EDARAVONE]?
inhibition [5]: Active; inhibition [9]: Dose-dependent effect; inhibition [10]: Dose-dependent effect; inhibition [6]: Dose-dependent effect; IC50 [7]: 34 µM; logP [2, 14]: 0.86

Which inhibition [1] does the source give for `O=c1c2ccccc2[se]n1-c1ccccc1` [EBSELEN] here?
Its inhibition is “Dose-dependent effect”.

What about the logP [2, 14] of the same molecule?
Its logP is 1.25.

What about the concentration at 24 h [13] of the same molecule?
The concentration at 24 h was 5 to 20 µM.

From ChEMBL document CHEMBL3864156, “Inhibition of plasma lipid oxidation induced by peroxyl radicals, peroxynitrite, hypochlorite, 15-lipoxygenase, and singlet oxygen by clinical drugs” (Bioorg Med Chem Lett, 2016)
